Assay results: ChEMBL document CHEMBL3991601, “The target landscape of clinical kinase drugs” (Science, 2017)
Activity calls are given as the source filed them. Cut-off read from the data, not from the text of the source, for most assays here: actives have a measured Kd and inactives only a lower limit.

Legend:
[1] = target: T1, Bone morphogenetic protein receptor type-2 (Homo sapiens, UniProt Q13873)
T1 sequence (Q13873 whole entry): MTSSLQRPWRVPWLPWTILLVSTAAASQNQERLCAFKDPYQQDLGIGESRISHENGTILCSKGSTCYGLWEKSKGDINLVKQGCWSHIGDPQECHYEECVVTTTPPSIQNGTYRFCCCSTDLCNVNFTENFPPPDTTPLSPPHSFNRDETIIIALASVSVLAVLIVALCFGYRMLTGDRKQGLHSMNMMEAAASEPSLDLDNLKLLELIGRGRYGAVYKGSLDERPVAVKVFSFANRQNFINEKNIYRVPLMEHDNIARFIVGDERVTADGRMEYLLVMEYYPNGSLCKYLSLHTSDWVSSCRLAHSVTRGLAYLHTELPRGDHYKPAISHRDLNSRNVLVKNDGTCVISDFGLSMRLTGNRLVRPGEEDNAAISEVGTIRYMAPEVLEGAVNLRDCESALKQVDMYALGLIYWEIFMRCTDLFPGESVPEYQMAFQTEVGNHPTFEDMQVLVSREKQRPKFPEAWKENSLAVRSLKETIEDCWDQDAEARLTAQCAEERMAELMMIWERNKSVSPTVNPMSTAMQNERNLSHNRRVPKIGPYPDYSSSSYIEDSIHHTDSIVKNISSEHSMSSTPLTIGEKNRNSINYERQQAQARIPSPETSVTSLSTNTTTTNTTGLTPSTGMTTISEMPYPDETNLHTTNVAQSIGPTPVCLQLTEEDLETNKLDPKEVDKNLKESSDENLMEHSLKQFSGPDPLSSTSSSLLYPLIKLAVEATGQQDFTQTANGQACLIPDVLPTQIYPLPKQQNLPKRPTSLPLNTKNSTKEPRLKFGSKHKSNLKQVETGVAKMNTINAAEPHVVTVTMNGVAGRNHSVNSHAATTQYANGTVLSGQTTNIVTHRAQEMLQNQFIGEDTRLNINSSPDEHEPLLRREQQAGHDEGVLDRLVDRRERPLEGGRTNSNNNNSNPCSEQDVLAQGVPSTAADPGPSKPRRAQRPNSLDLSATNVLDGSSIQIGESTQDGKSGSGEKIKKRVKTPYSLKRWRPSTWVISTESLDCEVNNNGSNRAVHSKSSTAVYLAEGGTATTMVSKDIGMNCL

[2] = target: T2, cGMP-dependent protein kinase 1 (Homo sapiens, UniProt Q13976)
T2 sequence (Q13976 whole entry): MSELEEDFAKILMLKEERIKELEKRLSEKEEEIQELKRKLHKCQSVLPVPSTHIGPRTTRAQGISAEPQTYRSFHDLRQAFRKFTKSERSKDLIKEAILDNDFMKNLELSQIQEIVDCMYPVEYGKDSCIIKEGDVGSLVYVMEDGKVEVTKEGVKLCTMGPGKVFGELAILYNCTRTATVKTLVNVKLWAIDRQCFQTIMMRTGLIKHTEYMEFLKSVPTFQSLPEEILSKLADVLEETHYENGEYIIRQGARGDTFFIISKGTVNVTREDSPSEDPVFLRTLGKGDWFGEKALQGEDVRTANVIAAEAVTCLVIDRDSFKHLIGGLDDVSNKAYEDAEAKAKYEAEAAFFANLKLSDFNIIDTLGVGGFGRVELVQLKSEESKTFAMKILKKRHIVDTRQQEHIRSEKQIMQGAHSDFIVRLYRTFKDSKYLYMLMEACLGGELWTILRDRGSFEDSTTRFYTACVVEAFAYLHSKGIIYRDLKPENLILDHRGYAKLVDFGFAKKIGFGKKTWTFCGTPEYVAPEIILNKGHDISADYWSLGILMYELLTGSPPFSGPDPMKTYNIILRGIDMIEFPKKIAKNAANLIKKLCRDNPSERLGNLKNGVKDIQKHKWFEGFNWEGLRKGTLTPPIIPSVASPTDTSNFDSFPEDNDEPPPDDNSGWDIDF

[3] = target: Protein kinase C beta type (Homo sapiens, UniProt P05771)
Sequence of Protein kinase C beta type (P05771 whole entry): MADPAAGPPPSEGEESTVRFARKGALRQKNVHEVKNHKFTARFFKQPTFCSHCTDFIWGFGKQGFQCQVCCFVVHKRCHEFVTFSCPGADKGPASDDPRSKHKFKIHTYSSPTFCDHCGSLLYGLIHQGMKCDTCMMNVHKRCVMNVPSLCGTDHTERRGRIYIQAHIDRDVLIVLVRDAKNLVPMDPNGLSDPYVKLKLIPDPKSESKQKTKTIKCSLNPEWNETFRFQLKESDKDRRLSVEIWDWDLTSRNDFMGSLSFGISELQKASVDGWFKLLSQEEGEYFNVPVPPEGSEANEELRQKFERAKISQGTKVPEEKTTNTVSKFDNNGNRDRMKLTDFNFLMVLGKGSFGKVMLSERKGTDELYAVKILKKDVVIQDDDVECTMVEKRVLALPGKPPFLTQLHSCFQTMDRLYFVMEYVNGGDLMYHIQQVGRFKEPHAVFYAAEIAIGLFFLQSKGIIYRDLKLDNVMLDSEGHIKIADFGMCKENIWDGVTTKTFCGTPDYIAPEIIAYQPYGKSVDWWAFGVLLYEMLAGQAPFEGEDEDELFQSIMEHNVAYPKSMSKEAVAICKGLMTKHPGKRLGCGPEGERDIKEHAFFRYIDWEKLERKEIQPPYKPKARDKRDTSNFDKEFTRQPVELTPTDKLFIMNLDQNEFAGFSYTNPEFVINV

Insulin receptor = Insulin receptor (Homo sapiens, UniProt P06213)
Sequence of Insulin receptor (P06213 28-758 limits assumed): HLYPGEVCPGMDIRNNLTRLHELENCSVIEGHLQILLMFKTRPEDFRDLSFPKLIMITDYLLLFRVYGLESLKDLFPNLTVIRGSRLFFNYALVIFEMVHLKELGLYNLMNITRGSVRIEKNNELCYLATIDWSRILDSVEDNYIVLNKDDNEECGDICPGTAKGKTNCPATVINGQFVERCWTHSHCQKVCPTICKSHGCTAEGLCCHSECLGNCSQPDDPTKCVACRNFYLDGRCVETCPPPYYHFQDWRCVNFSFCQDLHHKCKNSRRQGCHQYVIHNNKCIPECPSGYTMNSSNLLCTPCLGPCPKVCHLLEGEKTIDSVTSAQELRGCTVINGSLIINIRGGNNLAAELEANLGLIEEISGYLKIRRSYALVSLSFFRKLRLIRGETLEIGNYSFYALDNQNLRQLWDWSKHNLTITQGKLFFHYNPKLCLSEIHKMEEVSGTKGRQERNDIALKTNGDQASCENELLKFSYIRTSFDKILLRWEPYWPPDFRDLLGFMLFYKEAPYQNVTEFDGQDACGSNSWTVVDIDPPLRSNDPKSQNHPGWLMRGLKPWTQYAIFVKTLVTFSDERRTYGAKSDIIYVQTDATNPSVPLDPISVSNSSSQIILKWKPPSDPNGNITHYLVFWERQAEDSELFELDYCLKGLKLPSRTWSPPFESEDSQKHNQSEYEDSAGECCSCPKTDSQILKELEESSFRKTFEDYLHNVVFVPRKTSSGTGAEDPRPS
Sequence of Insulin receptor (P06213 763-1382 limits assumed): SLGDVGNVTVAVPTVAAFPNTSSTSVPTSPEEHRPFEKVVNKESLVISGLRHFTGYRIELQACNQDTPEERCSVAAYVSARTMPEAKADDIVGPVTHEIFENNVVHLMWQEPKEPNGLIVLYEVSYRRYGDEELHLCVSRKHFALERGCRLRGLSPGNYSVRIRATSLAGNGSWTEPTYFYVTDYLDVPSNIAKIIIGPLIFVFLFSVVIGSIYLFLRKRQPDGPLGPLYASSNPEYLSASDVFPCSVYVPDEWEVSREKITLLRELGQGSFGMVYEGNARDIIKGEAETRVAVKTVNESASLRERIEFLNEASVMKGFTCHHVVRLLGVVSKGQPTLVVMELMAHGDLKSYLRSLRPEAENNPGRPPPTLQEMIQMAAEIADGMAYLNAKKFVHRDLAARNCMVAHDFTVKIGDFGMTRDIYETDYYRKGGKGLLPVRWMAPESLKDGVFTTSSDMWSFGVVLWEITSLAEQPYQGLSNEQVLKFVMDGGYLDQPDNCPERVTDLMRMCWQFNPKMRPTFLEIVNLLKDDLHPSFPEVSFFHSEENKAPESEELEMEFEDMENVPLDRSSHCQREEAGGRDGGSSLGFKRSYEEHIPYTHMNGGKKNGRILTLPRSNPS

[4] = target: Putative heat shock protein HSP 90-beta 2 (Homo sapiens, UniProt Q58FF8)
Sequence of Putative heat shock protein HSP 90-beta 2 (Q58FF8 whole entry): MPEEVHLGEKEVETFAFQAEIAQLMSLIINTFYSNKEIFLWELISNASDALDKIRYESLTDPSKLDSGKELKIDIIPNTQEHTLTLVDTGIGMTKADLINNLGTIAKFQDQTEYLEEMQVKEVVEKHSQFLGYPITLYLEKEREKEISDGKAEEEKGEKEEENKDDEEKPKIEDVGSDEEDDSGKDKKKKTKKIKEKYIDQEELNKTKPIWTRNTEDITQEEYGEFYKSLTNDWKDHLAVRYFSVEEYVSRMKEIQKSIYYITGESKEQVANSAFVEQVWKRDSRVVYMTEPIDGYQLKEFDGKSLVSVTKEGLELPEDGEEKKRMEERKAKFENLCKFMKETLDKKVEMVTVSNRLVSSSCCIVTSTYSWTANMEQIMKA

[5] = target: T3, Serine/threonine-protein kinase Nek9 (Homo sapiens, UniProt Q8TD19)
T3 sequence (Q8TD19 whole entry): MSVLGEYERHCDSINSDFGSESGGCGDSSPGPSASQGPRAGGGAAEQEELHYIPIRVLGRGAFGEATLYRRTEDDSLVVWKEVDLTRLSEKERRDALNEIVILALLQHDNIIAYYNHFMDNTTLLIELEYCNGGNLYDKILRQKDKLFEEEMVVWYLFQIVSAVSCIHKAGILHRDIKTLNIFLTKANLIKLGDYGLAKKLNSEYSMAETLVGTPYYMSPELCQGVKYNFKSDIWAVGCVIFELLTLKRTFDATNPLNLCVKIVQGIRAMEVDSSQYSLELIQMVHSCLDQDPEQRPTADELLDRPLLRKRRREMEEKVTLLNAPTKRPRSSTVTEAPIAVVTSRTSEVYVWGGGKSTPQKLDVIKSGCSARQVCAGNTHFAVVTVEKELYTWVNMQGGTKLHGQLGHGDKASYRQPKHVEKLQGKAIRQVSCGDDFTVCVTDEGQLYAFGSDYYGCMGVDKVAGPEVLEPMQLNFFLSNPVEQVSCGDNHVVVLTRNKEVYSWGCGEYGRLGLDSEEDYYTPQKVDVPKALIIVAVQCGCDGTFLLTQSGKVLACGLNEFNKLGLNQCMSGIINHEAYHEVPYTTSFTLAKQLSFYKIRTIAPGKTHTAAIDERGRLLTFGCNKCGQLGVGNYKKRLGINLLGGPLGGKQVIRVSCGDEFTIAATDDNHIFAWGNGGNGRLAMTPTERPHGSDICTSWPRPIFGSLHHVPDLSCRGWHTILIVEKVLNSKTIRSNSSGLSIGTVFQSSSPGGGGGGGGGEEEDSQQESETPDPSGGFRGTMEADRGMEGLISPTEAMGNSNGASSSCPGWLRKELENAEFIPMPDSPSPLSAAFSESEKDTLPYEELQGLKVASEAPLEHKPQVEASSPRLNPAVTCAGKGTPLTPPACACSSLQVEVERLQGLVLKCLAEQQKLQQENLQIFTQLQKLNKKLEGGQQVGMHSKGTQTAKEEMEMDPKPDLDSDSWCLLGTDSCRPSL

[6] = target: cAMP-dependent protein kinase type II-alpha regulatory subunit (Homo sapiens, UniProt P13861)
Sequence of cAMP-dependent protein kinase type II-alpha regulatory subunit (P13861 whole entry): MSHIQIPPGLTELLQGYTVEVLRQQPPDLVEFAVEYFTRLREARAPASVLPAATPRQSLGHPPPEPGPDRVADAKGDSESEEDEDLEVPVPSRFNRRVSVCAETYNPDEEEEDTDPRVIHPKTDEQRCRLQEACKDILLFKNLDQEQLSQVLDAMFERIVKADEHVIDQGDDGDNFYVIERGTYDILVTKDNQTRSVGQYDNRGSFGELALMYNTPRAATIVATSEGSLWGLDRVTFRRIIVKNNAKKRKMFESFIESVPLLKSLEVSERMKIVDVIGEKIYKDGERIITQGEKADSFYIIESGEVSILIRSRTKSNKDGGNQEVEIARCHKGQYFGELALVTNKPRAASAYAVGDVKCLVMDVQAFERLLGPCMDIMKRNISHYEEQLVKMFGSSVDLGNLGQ

[7] = target: Tyrosine-protein kinase HCK (Homo sapiens, UniProt P08631)
Sequence of Tyrosine-protein kinase HCK (P08631 whole entry): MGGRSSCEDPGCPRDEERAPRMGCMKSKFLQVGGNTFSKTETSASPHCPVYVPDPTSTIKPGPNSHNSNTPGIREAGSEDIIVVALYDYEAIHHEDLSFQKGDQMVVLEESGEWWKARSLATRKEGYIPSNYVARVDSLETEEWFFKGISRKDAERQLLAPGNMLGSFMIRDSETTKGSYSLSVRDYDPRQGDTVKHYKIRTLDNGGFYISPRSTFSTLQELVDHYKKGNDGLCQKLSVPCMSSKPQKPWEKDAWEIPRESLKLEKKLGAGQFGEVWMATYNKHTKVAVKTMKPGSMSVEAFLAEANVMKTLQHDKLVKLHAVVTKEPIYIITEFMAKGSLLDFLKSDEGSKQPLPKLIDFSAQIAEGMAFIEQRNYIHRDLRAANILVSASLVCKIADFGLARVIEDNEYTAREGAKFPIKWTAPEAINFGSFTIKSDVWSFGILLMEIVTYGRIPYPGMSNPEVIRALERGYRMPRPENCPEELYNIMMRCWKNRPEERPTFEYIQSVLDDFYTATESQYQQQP

[8] = target: Rho-associated protein kinase 2 (Homo sapiens, UniProt O75116)
Sequence of Rho-associated protein kinase 2 (O75116 whole entry): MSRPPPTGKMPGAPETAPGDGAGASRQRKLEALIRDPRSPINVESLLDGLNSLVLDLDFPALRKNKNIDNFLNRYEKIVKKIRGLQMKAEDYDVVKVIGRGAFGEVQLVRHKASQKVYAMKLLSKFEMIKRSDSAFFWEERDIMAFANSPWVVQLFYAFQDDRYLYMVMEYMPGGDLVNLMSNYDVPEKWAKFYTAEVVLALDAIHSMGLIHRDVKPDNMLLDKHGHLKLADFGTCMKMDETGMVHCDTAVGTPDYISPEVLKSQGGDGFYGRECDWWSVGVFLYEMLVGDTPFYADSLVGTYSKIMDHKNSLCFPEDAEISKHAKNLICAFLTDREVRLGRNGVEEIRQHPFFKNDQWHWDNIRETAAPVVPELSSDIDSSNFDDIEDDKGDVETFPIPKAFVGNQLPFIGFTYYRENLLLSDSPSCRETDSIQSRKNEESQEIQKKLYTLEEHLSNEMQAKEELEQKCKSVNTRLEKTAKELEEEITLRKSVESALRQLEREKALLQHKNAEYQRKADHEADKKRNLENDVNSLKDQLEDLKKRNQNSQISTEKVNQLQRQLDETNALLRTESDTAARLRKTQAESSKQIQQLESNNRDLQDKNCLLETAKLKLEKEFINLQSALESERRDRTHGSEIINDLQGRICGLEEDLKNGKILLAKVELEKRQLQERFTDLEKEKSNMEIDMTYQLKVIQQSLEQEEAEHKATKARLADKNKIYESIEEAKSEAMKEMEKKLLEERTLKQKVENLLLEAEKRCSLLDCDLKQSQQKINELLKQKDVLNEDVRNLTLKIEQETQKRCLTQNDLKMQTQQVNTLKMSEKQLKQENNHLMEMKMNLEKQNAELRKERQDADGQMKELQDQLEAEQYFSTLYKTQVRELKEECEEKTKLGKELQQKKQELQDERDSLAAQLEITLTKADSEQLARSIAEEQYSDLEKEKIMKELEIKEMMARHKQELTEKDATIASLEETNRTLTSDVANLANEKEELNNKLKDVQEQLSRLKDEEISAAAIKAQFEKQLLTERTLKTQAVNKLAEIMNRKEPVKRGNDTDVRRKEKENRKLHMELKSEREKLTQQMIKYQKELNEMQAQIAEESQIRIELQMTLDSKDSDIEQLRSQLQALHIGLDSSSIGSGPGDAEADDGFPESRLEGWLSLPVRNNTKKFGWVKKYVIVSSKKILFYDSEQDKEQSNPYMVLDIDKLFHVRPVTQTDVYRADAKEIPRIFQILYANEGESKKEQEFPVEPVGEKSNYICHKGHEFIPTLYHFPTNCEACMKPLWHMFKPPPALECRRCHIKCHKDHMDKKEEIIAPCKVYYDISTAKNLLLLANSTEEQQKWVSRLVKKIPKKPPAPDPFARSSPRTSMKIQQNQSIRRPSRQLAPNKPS
Note: in the data inactive means no Kd found up to 30 µM.

Compound | Kd [1] | Kd [2] | Kd [3] | Kd (Insulin receptor) | Kd [4] | Kd [5] | Kd [6] | Kd [7] | Kd [8]
CC[C@@H]1C(=O)N(C)c2cnc(Nc3ccc(C(=O)N[C@H]4CC[C@H](N5CCN(CC6CC6)CC5)CC4)cc3OC)nc2N1C(C)C [VOLASERTIB] | > 30 µM (inactive) | > 30 µM (inactive) | > 30 µM (inactive) | > 30 µM (inactive) | > 30 µM (inactive) | > 30 µM (inactive) | > 30 µM (inactive) | > 30 µM (inactive) | > 30 µM (inactive)
CN1CCC(COc2cnc(-c3cccc(Cn4nc(-c5cccc(C#N)c5)ccc4=O)c3)nc2)CC1 [TEPOTINIB] | > 30 µM (inactive) | > 30 µM (inactive) | > 30 µM (inactive) | > 30 µM (inactive) | > 30 µM (inactive) | > 30 µM (inactive) | > 30 µM (inactive) | > 30 µM (inactive) | > 30 µM (inactive)
Cc1cc2c(F)c(Oc3ncnn4cc(OC[C@@H](C)OC(=O)[C@H](C)N)c(C)c34)ccc2[nH]1 [BRIVANIB ALANINATE] | > 30 µM (inactive) | > 30 µM (inactive) | > 30 µM (inactive) | > 30 µM (inactive) | > 30 µM (inactive) | > 30 µM (inactive) | > 30 µM (inactive) | > 30 µM (inactive) | > 30 µM (inactive)
CN1N=C(N)c2cn([C@@H]3O[C@H](COP(=O)(O)O)[C@@H](O)[C@H]3O)c3ncnc1c23 [TRICIRIBINE PHOSPHATE] | > 30 µM (inactive) | > 30 µM (inactive) | > 30 µM (inactive) | > 30 µM (inactive) | > 30 µM (inactive) | > 30 µM (inactive) | > 30 µM (inactive) | > 30 µM (inactive) | > 30 µM (inactive)
Cc1cc([C@@H](C)Nc2ccccc2C(=O)O)c2nc(N3CCOCC3)cc(=O)n2c1 [AZD-6482] | > 30 µM (inactive) | > 30 µM (inactive) | > 30 µM (inactive) | > 30 µM (inactive) | > 30 µM (inactive) | > 30 µM (inactive) | > 30 µM (inactive) | > 30 µM (inactive) | > 30 µM (inactive)
CCS(=O)(=O)N1CC(CC#N)(n2cc(-c3ncnc4[nH]ccc34)cn2)C1 [BARICITINIB] | > 30 µM (inactive) | > 30 µM (inactive) | 26.3 µM (active) | > 30 µM (inactive) | > 30 µM (inactive) | > 30 µM (inactive) | > 30 µM (inactive) | > 30 µM (inactive) | 0.756 µM (active)
Cc1cc(-c2cc(O)ccc2Cl)cc2nnc(Nc3ccc(OCCN4CCCC4)cc3)nc12 | 0.003 µM (active) | > 30 µM (inactive) | > 30 µM (inactive) | > 30 µM (inactive) | > 30 µM (inactive) | > 30 µM (inactive) | > 30 µM (inactive) | > 30 µM (inactive) | > 30 µM (inactive)
Cc1c(F)cc(C(=O)NC2CC2)cc1-c1ccc(C(=O)NCC(C)(C)C)cn1 [LOSMAPIMOD] | > 30 µM (inactive) | > 30 µM (inactive) | > 30 µM (inactive) | > 30 µM (inactive) | > 30 µM (inactive) | > 30 µM (inactive) | > 30 µM (inactive) | > 30 µM (inactive) | > 30 µM (inactive)
O=C(c1ccc(F)c(F)c1Nc1ccc(I)cc1F)N1CC(O)([C@@H]2CCCCN2)C1 [COBIMETINIB] | > 30 µM (inactive) | > 30 µM (inactive) | > 30 µM (inactive) | > 30 µM (inactive) | > 30 µM (inactive) | > 30 µM (inactive) | > 30 µM (inactive) | > 30 µM (inactive) | > 30 µM (inactive)
COc1cc(N2CCC(N3CCN(C)CC3)CC2)ccc1Nc1ncnc(Nc2ccccc2S(=O)(=O)C(C)C)n1 [ASP-3026] | > 30 µM (inactive) | > 30 µM (inactive) | > 30 µM (inactive) | 7.91 µM (active) | > 30 µM (inactive) | > 30 µM (inactive) | > 30 µM (inactive) | 1.25 µM (active) | > 30 µM (inactive)
O=c1sn(-c2cccc3ccccc23)c(=O)n1Cc1ccccc1 [TIDEGLUSIB] | > 30 µM (inactive) | > 30 µM (inactive) | > 30 µM (inactive) | > 30 µM (inactive) | > 30 µM (inactive) | > 30 µM (inactive) | > 30 µM (inactive) | > 30 µM (inactive) | > 30 µM (inactive)
CNS(=O)(=O)Nc1nccc(Cc2c(C)c3ccc(Oc4ncccn4)cc3oc2=O)c1F [AVUTOMETINIB] | > 30 µM (inactive) | > 30 µM (inactive) | > 30 µM (inactive) | > 30 µM (inactive) | > 30 µM (inactive) | > 30 µM (inactive) | > 30 µM (inactive) | > 30 µM (inactive) | > 30 µM (inactive)
CN1CCC(CNc2ccc3ncc(-c4cccc(OC(F)(F)F)c4)n3n2)CC1 [SGI-1776] | > 30 µM (inactive) | > 30 µM (inactive) | > 30 µM (inactive) | > 30 µM (inactive) | > 30 µM (inactive) | > 30 µM (inactive) | > 30 µM (inactive) | > 30 µM (inactive) | > 30 µM (inactive)
CCCS(=O)(=O)Nc1ccc(F)c(C(=O)c2c[nH]c3ncc(-c4ccc(Cl)cc4)cc23)c1F [VEMURAFENIB] | > 30 µM (inactive) | > 30 µM (inactive) | > 30 µM (inactive) | > 30 µM (inactive) | > 30 µM (inactive) | > 30 µM (inactive) | > 30 µM (inactive) | > 30 µM (inactive) | > 30 µM (inactive)
